Data published in paper PMC4536076, “Chemical Library Screening and Structure-Function Relationship Studies Identify Bisacodyl as a Potent and Selective Cytotoxic Agent Towards Quiescent Human Glioblastoma Tumor Stem-Like Cells” (PLoS ONE, 2015).
Counter-ions that a name gives are not always drawn.

Legend:
quiescent TG1 GSCs = conditions: primary screen, 50 μM, 24 h
Protocol: (§1) Proliferating or quiescent TG1 GSCs were seeded (30 000 and 40 000 viable cells/well, respectively) into 96-well opaque bottom plates (Greiner) with the Biomek FX robot (Beckman Coulter). Each compound from the Prestwick Library was then added (final concentration: 50 μM; 1% DMSO). Each molecule was tested once. Negative control wells (12/96 per assay plate) contained cells treated with 1% DMSO (final concentration) and positive control wells (4/96 per assay plate) contained cells treated with the fungal toxin ophiobolin A (Sigma Aldrich) at 50 μM with 1% DMSO. […] Luminescence in each well was measured with the Victor3 plate reader (PerkinElmer).
(§2) Relative ATP levels in each well were determined by calculating the percentage of luminescent signal in the well with respect to the average signal measured in negative control wells.
(§3) Primary screen hits were further tested in duplicate, at two concentrations (50 and 5 μM) on proliferating and quiescent TG1 GSCs. Cell plating and treatment with compounds were as for the primary screen. Hit selection/confirmation criteria for quiescent cells were as described above.

proliferating TG1 GSCs = conditions: primary screen, 50 μM, 24 h
Protocol: as §1, §2, §3

In the case of `Fc1ccc(C(c2ccc(F)cc2)N2CCN(C/C=C/c3ccccc3)CC2)cc1` [Flunarizine dihydrochloride], the “Activity on quiescent TG1 GSCs (hit compounds reducing ATP levels)” value (quiescent TG1 GSCs) is reported as “yes”.
For `CC[C@H](c1ccc(O)cc1)[C@@H](CC)c1ccc(O)cc1` [Hexestrol], the “Activity on quiescent TG1 GSCs (hit compounds reducing ATP levels)” value (quiescent TG1 GSCs) was “yes”.
`C[C@@H]1O[C@@H](O[C@@H]2C=C3CC[C@@H]4[C@H](CC[C@]5(C)[C@@H](c6ccc(=O)oc6)CC[C@]45O)[C@@]3(C)CC2)[C@H](O)[C@H](O)[C@H]1O` [Proscillaridin A] was tested, and the “Activity on quiescent TG1 GSCs (hit compounds reducing ATP levels)” value (quiescent TG1 GSCs) was “yes”.
With (S)-(-)-Atenolol the “Activity on quiescent TG1 CSCs (hit compounds increasing ATP levels)” value (quiescent TG1 GSCs) was “yes”.
`CCC(C)(C)C(=O)O[C@H]1C[C@@H](C)C=C2C=C[C@H](C)[C@H](CC[C@@H]3C[C@@H](O)CC(=O)O3)[C@H]21` [Simvastatin] was tested, and the “Activity on quiescent TG1 GSCs (hit compounds reducing ATP levels)” value (quiescent TG1 GSCs) was “yes”.
`Nc1ncnc2c1ncn2[C@@H]1O[C@@H]2COP(=O)(O)O[C@H]2[C@H]1O` [Cyclic AMP] was tested, and the “Activity on proliferating TG1 CSCs (hit compounds increasing ATP levels)” value (proliferating TG1 GSCs) was “yes”.
With `CSc1ccc2c(c1)N(CCC1CCCCN1C)c1ccccc1S2` (stereo not drawn) [Thioridazine hydrochloride] the “Activity on proliferating TG1 GSCs (hit compounds reducing ATP levels)” value (proliferating TG1 GSCs) was “yes”.
With `CCC1(c2ccccc2)C(=O)NCNC1=O` [Primidone] the “Activity on proliferating TG1 CSCs (hit compounds increasing ATP levels)” value (proliferating TG1 GSCs) was “yes”.
With `C[C@H]1O[C@@H](O[C@H]2[C@@H](O)C[C@H](O[C@H]3[C@@H](O)C[C@H](O[C@H]4CC[C@@]5(C)[C@H](CC[C@@H]6[C@@H]5C[C@@H](O)[C@]5(C)[C@@H](C7=CC(=O)OC7)CC[C@]65O)C4)O[C@@H]3C)O[C@@H]2C)C[C@H](O)[C@@H]1O` [Digoxin] the “Activity on proliferating TG1 GSCs (hit compounds reducing ATP levels)” value (proliferating TG1 GSCs) was “yes”.
With `CC(C)(Sc1cc(C(C)(C)C)c(O)c(C(C)(C)C)c1)Sc1cc(C(C)(C)C)c(O)c(C(C)(C)C)c1` [Probucol] the “Activity on proliferating TG1 CSCs (hit compounds increasing ATP levels)” value (proliferating TG1 GSCs) was “yes”.
`C[C@@H]1O[C@@H](O[C@H]2C[C@@H](O)[C@]3(CO)[C@H]4[C@H](O)C[C@]5(C)[C@@H](C6=CC(=O)OC6)CC[C@]5(O)[C@@H]4CC[C@]3(O)C2)[C@H](O)[C@H](O)[C@H]1O.O.O.O.O.O.O.O.O` [Strophantine octahydrate] was tested, and the “Activity on quiescent TG1 GSCs (hit compounds reducing ATP levels)” value (quiescent TG1 GSCs) was “yes”.
`CCc1cc(C(N)=S)ccn1` [Ethionamide] was tested, and the “Activity on quiescent TG1 CSCs (hit compounds increasing ATP levels)” value (quiescent TG1 GSCs) was “yes”.
With `CC[C@H](C)C(=O)O[C@H]1C[C@@H](C)C=C2C=C[C@H](C)[C@H](CC[C@@H]3C[C@@H](O)CC(=O)O3)[C@H]21` [Lovastatin] the “Activity on quiescent TG1 CSCs (hit compounds increasing ATP levels)” value (quiescent TG1 GSCs) was “yes”.
In the case of `C[C@]12CC[C@H]3[C@@H](CC[C@]4(O)C[C@@H](O)CC[C@]34C=O)[C@@]1(O)CC[C@@H]2C1=CC(=O)OC1` [Strophanthidin], the “Activity on quiescent TG1 GSCs (hit compounds reducing ATP levels)” value (quiescent TG1 GSCs) is reported as “yes”.
For Meclocycline sulfosalicylate, the “Activity on quiescent TG1 GSCs (hit compounds reducing ATP levels)” value (quiescent TG1 GSCs) was “yes”.
In the case of `Oc1c(I)cc(Cl)c2cccnc12` [Clioquinol], the “Activity on proliferating TG1 GSCs (hit compounds reducing ATP levels)” value (proliferating TG1 GSCs) is reported as “yes”.
With `O=C(Nc1ccc([N+](=O)[O-])cc1Cl)c1cc(Cl)ccc1O` [Niclosamide] the “Activity on quiescent TG1 GSCs (hit compounds reducing ATP levels)” value (quiescent TG1 GSCs) was “yes”.
In the case of `CN(C)c1nc(N(C)C)nc(N(C)C)n1` [Altretamine], the “Activity on proliferating TG1 CSCs (hit compounds increasing ATP levels)” value (proliferating TG1 GSCs) is reported as “yes”.
With `NC[C@H]1CC[C@H](C(=O)O)CC1` [Tranexamic acid] the “Activity on quiescent TG1 CSCs (hit compounds increasing ATP levels)” value (quiescent TG1 GSCs) was “yes”.
In the case of `O=C(O)c1cc(-c2ccc(F)cc2F)ccc1O` [Diflunisal], the “Activity on quiescent TG1 GSCs (hit compounds reducing ATP levels)” value (quiescent TG1 GSCs) is reported as “yes”.
For `COc1cc2nc(N3CCN(C(=O)C4COc5ccccc5O4)CC3)nc(N)c2cc1OC` (stereo not drawn) [Doxazosin mesylate], the “Activity on quiescent TG1 GSCs (hit compounds reducing ATP levels)” value (quiescent TG1 GSCs) was “yes”.
`Cc1cccc(C)c1NC(=O)CN1CCN(CCCC(c2ccc(F)cc2)c2ccc(F)cc2)CC1` [Lidoflazine] was tested, and the “Activity on proliferating TG1 GSCs (hit compounds reducing ATP levels)” value (proliferating TG1 GSCs) was “yes”.
`CNCCC=C1c2ccccc2C=Cc2ccccc21` [Norcyclobenzaprine] was tested, and the “Activity on proliferating TG1 GSCs (hit compounds reducing ATP levels)” value (proliferating TG1 GSCs) was “yes”.
For `CCN1CCN(C(=O)N[C@@H](C(=O)N[C@@H]2C(=O)N3[C@@H]2SC(C)(C)[C@@H]3C(=O)O)c2ccccc2)C(=O)C1=O` [Piperacillin sodium salt], the “Activity on proliferating TG1 GSCs (hit compounds reducing ATP levels)” value (proliferating TG1 GSCs) was “yes”.
For `CCOc1ccc(Cc2nccc3cc(OCC)c(OCC)cc23)cc1OCC` [Ethaverine hydrochloride], the “Activity on quiescent TG1 GSCs (hit compounds reducing ATP levels)” value (quiescent TG1 GSCs) was “yes”.
In the case of `CN1CCCC(CC2c3ccccc3Sc3ccccc32)C1` (stereo not drawn) [Metixene hydrochloride], the “Activity on proliferating TG1 GSCs (hit compounds reducing ATP levels)” value (proliferating TG1 GSCs) is reported as “yes”.
For `[H]/N=C(\N/C(=N/[H])NCCCCCCNC(=N)NC(=N)Nc1ccc(Cl)cc1)Nc1ccc(Cl)cc1` [Chlorhexidine], the “Activity on proliferating TG1 GSCs (hit compounds reducing ATP levels)” value (proliferating TG1 GSCs) was “yes”.
